In patent US20080200474A1, “NOVEL FLUNARIZINE SALT FORMS AND METHODS OF MAKING AND USING THE SAME” (TRANSFORM PHARMACEUTICALS, INC., priority 2007, published 2008):
Structures can show the parent of a compound that is named as a salt. Where two headings read alike, the source gives them in different places.

What was measured:
[1] = format: physicochemical
Source text: Dynamic vapor sorption (DVS) analysis was completed on flunarizine benzoate from about 0 to about 95 percent relative humidity at about 25 degrees C. (See FIG. 5). […] This is characteristic of a nonhygroscopic material.
Dynamic vapor sorption (DVS) analysis was completed on flunarizine fumarate from about 0 to about 95 percent relative humidity at about 25 degrees C. (See FIG. 9). […] This is characteristic of a nonhygroscopic material.
Flunarizine dihydrochloride is hygroscopic. The dihydrochloride salt rapidly adsorbs water (greater than 7 percent change in mass) at relative humidity levels above about 60 percent. The release of the adsorbed water is difficult upon desorption. In comparison, the flunarizine benzoate salt of the present invention adsorbs relatively little water (less than 1 percent change in mass) at relative humidity levels up to about 95 percent.

[2] = Excipient compatibility, solid mixes sucrose:crospovidone:flunarizine salt 94:5:1 stored at 60 degrees C.; format: physicochemical; conditions: sucrose:crospovidone:salt 94:5:1 (weight %), wetted and dried, seal crimped, stored at 60 degrees C. for 2 weeks
Protocol: Two solid mixes, one containing sucrose:crospovidone:flunarizine dihydrochloride 94:5:1 (weight %), and the other containing sucrose:crospovidone:flunarizine benzoate 94:5:1 (weight %), were prepared in mortars, transferred to separate vials and a small amount of water was added until a very viscous syrup was formed. The samples were left to air dry at room temperature for two days followed by one day under vacuum at 40 degrees C. After the processing was finished, pictures of the samples were taken. Vials with identical content to the ones pictured were seal crimped and stored at 60 degrees C. for 2 weeks. After this period, their pictures were taken.

release of the adsorbed water upon desorption ([1]; DVS desorption, about 25 degrees C.) | hygroscopicity (DVS) ([1]; about 25 degrees C.) | water adsorption, change in mass ([1]; relative humidity levels above about 60 percent, about 25 degrees C.) | water adsorption, change in mass ([1]; relative humidity levels up to about 95 percent) | Molecule | degradation in excipient mix (comparison of images) [2] | stability over relative humidity (DVS) [1]
difficult | hygroscopic | greater than 7% |  | Fc1ccc(C(c2ccc(F)cc2)N2CCN(C/C=C/c3ccccc3)CC2)cc1 [flunarizine dihydrochloride, reference compound] | substantially more degradation | 
 | nonhygroscopic |  |  | 1-cinnamyl-4-(di-p-fluorobenzhydryl)piperazine fumarate [flunarizine fumarate] |  | stable from about 0% to about 95% relative humidity
 | nonhygroscopic |  | less than 1% | Fc1ccc(C(c2ccc(F)cc2)N2CCN(CC=Cc3ccccc3)CC2)cc1.O=C(O)c1ccccc1 [flunarizine benzoate, 1-cinnamyl-4-(di-p-fluorobenzhydryl)piperazine benzoate] | substantially more degradation had occurred in the mixes containing flunarizine dihydrochloride than those containing flunarizine benzoate | stable from about 0% to about 95% relative humidity
